Assay results: article PMC12016938, “A small molecule PKCε inhibitor reduces hyperalgesia induced by paclitaxel or opioid withdrawal” (JCI Insight, 2025)
“And” between values parts separate entries of the source, which are not always exact repeats. Identical values can stand only once. Like-named read-outs stand apart in the source and are kept apart here.

Assay: Pharmacokinetic studies in rats (plasma and brain)
Assay type: in vivo
Conditions: for Kp at 2 h / Kp at 24 h / concentration at 2 h / concentration at 24 h / Plasma concentration / Brain/Plasma / Plasma 2h/24h: rat; for concentration at 2 h / concentration at 24 h: read-out: Brain concentration
Method: Because binding to plasma protein was approximately 90%, we predicted that the free concentration at each time point was 10 times lower than the measured plasma concentration.
Pharmacokinetic studies in rats. Pharmacokinetics studies were contracted to the Drug Metabolism and Pharmacokinetics Core at Scripps Research. CP612 was dissolved at in 10% Tween-80/90% water and administered at 40 mg/kg/5 mL. Six rats were injected i.v. and 6 were injected i.p. Three rats were used to collect a full plasma time course from 5 minutes to 24 hours after dose. Then, brains were collected from these rats at 24 hours and from 3 additional rats at 2 hours after administration of compound. One rat receiving i.p. administration of CP612 was excluded as it had low/nondetectable levels indicating missed i.p. injection in that rat. Plasma samples were diluted 10-fold in blank plasma. Each brain was disrupted in potassium phosphate buffer (pH 7.4; 9 μL per 1mg tissue) on ice using brief sonication pulses. CP612 was detected with an API Triple Quad 5500 LC-MS/MS (SCIEX) using an MRM(+) method: CP612 (463/282, m/z) with carbamazepine (238/195.1, m/z) as an internal standard.

[1] = i.p. 40 mg/kg, 2h, individual rat, 40 mg/kg
[2] = i.p. 40 mg/kg, 24h, individual rat, 40 mg/kg
[3] = i.v. 40 mg/kg, 2h, individual rat, 40 mg/kg

N[C@H](CNC(=O)C1(c2ccc(Cl)cc2)CCCC1)c1ccc(C(=O)Nc2ccncc2)cc1 [CP612]
Brain level between 2 hours and 24 hours (40 mg/kg i.p.): remained stable
Decrease of plasma level between 2 hours and 24 hours (40 mg/kg i.p.): about 30 fold
Decrease of brain level between 2 hours and 24 hours (40 mg/kg i.v.): less than 2 fold
Decrease of plasma level between 2 hours and 24 hours (40 mg/kg i.v.): about 70 fold
Predicted free concentration relative to measured plasma concentration (from approx. 90% plasma protein binding): 10 times lower
Kp at 2 h (brain, ip, 40 mg/kg, 40 mg/kg i.p., 2 hours, read-out: Brain/plasma concentration ratio): 0.03 ± 0.009
Kp at 24 h (brain, ip, 40 mg/kg, 40 mg/kg i.p., 24 hours, read-out: Brain/plasma concentration ratio): 1.18 ± 0.42
concentration at 2 h (brain, ip, 40 mg/kg, i.p. 40 mg/kg, 2h, mean all rats): 494 nM
Kp at 2 h (brain, ip, 40 mg/kg, i.p. 40 mg/kg, 2h, mean all rats, read-out: Brain/Plasma): 0.0312
concentration at 2 h (brain, ip, 40 mg/kg, i.p. 40 mg/kg, 2h, mean of Plasma 2h, Brain 2h rats): 494 nM
Kp at 2 h (brain, ip, 40 mg/kg, i.p. 40 mg/kg, 2h, mean of Plasma 2h, Brain 2h rats, read-out: Brain/Plasma): 0.0312
concentration at 24 h (brain, ip, 40 mg/kg, i.p. 40 mg/kg, 24h, individual rat): 609 nM
concentration at 24 h (brain, ip, 40 mg/kg, i.p. 40 mg/kg, 24h, mean all rats): 540 nM
Kp at 24 h (brain, ip, 40 mg/kg, i.p. 40 mg/kg, 24h, mean all rats, read-out: Brain/Plasma): 1.18
concentration at 24 h (brain, ip, 40 mg/kg, i.p. 40 mg/kg, 24h, mean of RM Plasma + Brain 24h rats): 540 nM
Kp at 24 h (brain, ip, 40 mg/kg, i.p. 40 mg/kg, 24h, mean of RM Plasma + Brain 24h rats, read-out: Brain/Plasma): 1.18
Kp at 2 h (brain, iv, 40 mg/kg, 40 mg/kg i.v., 2 hours, read-out: Brain/plasma concentration ratio): 0.16 ± 0.03
Kp at 24 h (brain, iv, 40 mg/kg, 40 mg/kg i.v., 24 hours, read-out: Brain/plasma concentration ratio): 9.17 ± 3.19
concentration at 2 h (brain, iv, 40 mg/kg, i.v. 40 mg/kg, 2h, individual rat): 2290 nM
Kp at 2 h (brain, iv, 40 mg/kg, i.v. 40 mg/kg, 2h, individual rat, read-out: Brain/Plasma): 0.15
concentration at 2 h (brain, iv, 40 mg/kg, i.v. 40 mg/kg, 2h, mean all rats): 2630 nM
Kp at 2 h (brain, iv, 40 mg/kg, i.v. 40 mg/kg, 2h, mean all rats, read-out: Brain/Plasma): 0.163
concentration at 2 h (brain, iv, 40 mg/kg, i.v. 40 mg/kg, 2h, mean of Plasma 2h, Brain 2h rats): 2630 nM
Kp at 2 h (brain, iv, 40 mg/kg, i.v. 40 mg/kg, 2h, mean of Plasma 2h, Brain 2h rats, read-out: Brain/Plasma): 0.163
concentration at 24 h (brain, iv, 40 mg/kg, i.v. 40 mg/kg, 24h, mean all rats): 1460 nM
Kp at 24 h (brain, iv, 40 mg/kg, i.v. 40 mg/kg, 24h, mean all rats, read-out: Brain/Plasma): 9.17
concentration at 24 h (brain, iv, 40 mg/kg, i.v. 40 mg/kg, 24h, mean of RM Plasma + Brain 24h rats): 1460 nM
Kp at 24 h (brain, iv, 40 mg/kg, i.v. 40 mg/kg, 24h, mean of RM Plasma + Brain 24h rats, read-out: Brain/Plasma): 9.17
Plasma concentration (i.p. 40 mg/kg, 15min, individual rat, 40 mg/kg): 21815.2 nM
Plasma concentration (i.p. 40 mg/kg, 30min, individual rat, 40 mg/kg): 20540.8 nM
Brain/Plasma [1]: 0.02 and 0.0252 and 0.05
Plasma concentration [1]: 15033 nM and 14212.3 nM and 13650.7 nM and 17581.8 nM
concentration at 2 h [1]: 280.8 nM and 343.4 nM and 857.5 nM
Plasma concentration (i.p. 40 mg/kg, 4h, individual rat, 40 mg/kg): 6479.8 nM
Plasma concentration (i.p. 40 mg/kg, 6h, individual rat, 40 mg/kg): 1874.8 nM
Plasma concentration (i.p. 40 mg/kg, 8h, individual rat, 40 mg/kg): 1974.2 nM
Brain/Plasma [2]: 1.60 and 0.76
Plasma concentration [2]: 615.6 nM
concentration at 2 h [2]: 470.9 nM
Plasma 2h/24h (i.p. 40 mg/kg, individual rat, 40 mg/kg): 37.8409 and 24.4211
Plasma 2h/24h (i.p. 40 mg/kg, mean all rats): 31.1310
Plasma 2h/24h (i.p. 40 mg/kg, mean of RM Plasma + Brain 24h rats): 31.1310
Plasma concentration (i.v. 40 mg/kg, 5min, individual rat, 40 mg/kg): 73005.3 nM and 87692.8 nM
Plasma concentration (i.v. 40 mg/kg, 15min, individual rat, 40 mg/kg): 49462.2 nM and 51406.1 nM
Plasma concentration (i.v. 40 mg/kg, 30min, individual rat, 40 mg/kg): 35638.7 nM and 16847.4 nM and 33046.8 nM
Plasma concentration (i.v. 40 mg/kg, 1h, individual rat, 40 mg/kg): 23543.1 nM and 24623.1 nM
Brain/Plasma [3]: 0.22 and 0.12
Plasma concentration [3]: 15313.8 nM and 16653 nM and 15983.4 nM and 12333.1 nM and 12074 nM
concentration at 2 h [3]: 3671.9 nM and 1922.3 nM
Plasma concentration (i.v. 40 mg/kg, 4h, individual rat, 40 mg/kg): 4017.5 nM and 4341.4 nM
